Bases are written 5' to 3'; sugars and linkages follow in the same order, as letters with counts (s phosphorothioate, o phosphodiester; PS: all linkages phosphorothioate). The collection does not say whether C is 5-methylated. l = locked nucleic acid (LNA); d = 2'-deoxy (DNA)
biological target: Tau; assay: rat primary cortical neurons, FLIPR, 25 uM ASO

Row | Sequence | calcium oscillation score
1 | GTTAGCCCTAAAGTCC (sugars l3 d10 l3, PS) | 110 % of control
2 | CTTAATTCATTTAATTCTCT (sugars l3 d13 l4, PS) | 90.1 % of control
3 | CATGATTAATTACACCC (sugars l3 d11 l3, PS) | 35.5 % of control
4 | TCCCAGCGTGATCTTCCATC (sugars l5 d11 l4, PS) | 85.2 % of control
5 | CCCACATTTGCAAACCAC (sugars l2 d14 l2, PS) | 50.5 % of control
6 | TTATTTCCAAATTCACTTTT (sugars llddlldddddddddlldll, PS) | 88.8 % of control
7 | TCTTCTAATATCCTTGC (sugars l3 d11 l3, PS) | 55.7 % of control
8 | ATAGTCACTCTGGTG (sugars l3 d9 l3, PS) | 27.8 % of control
9 | ACTTTATTTCCAAATTCACTT (sugars l5 d11 l5, PS) | 121 % of control
10 | GGTGATATTGTCCAGG (sugars l3 d10 l3, PS) | 18.5 % of control
11 | GTCTGGCATGGGCAC (sugars l3 d9 l3, PS) | 62.9 % of control
12 | ACCATTAACTGCCTATT (sugars l4 d11 l2, PS) | 50.5 % of control
13 | TCCAGCTACTTACCCAA (sugars l2 d12 l3, PS) | 89 % of control
14 | CCCAGCGTGATCTT (sugars l3 d8 l3, PS) | 46 % of control
15 | TTTAATTCACACAACAAACT (sugars l4 d12 l4, PS) | 89.1 % of control
16 | GTTTTTTAACTCCCAAC (sugars l4 d9 l4, PS) | 74.1 % of control
17 | ACCTCCTAGAACACAAC (sugars l4 d10 l3, PS) | 53.9 % of control
18 | TATTTCCAAATTCACTTTTA (sugars llldldddddddddldldll, PS) | 108 % of control
19 | GATATTCATTCCCTCAC (sugars l2 d11 l4, PS) | 57.2 % of control
20 | TCTTCCACTACAAGCTCC (sugars l2 d14 l2, PS) | 55.8 % of control
21 | TTTCATGTTAAATCCCT (sugars l4 d10 l3, PS) | 94.2 % of control
22 | TTCCACTACAAGCTCCA (sugars l3 d12 l2, PS) | 53.9 % of control

Row | Sequence | calcium oscillation score
23 | ATGATTGTGGGCTTAG (sugars l3 d10 l3, PS) | 24.4 % of control
24 | CTTACTTTCTACTCAATTCC (sugars l2 d16 l2, PS) | 60.6 % of control
25 | CGTCTTTGCTTTTACTGACC (sugars l3 d14 l3, PS) | 29.6 % of control
26 | CACTCTAACATCTTAG (sugars l4 d8 l4, PS) | 77.6 % of control
27 | AGGCGCGAGCAGCG (sugars l3 d8 l3, PS) | 100 % of control
28 | ACCATGATCTTAGGCT (sugars l3 d10 l3, PS) | 87.8 % of control
29 | CAGAGGAACGTGTGGA (sugars l3 d10 l3, PS) | 29.6 % of control
30 | CGAACTGCGAGGAGCA (sugars l3 d10 l3, PS) | 2.71 % of control
31 | AGCCCATTTACAATTCA (sugars l2 d11 l4, PS) | 76.7 % of control
32 | TCCACAAACCAACTCAACAT (sugars l2 d15 l3, PS) | 75.2 % of control
33 | GACCCTTTTTCTTAAC (sugars l4 d10 l2, PS) | 59.1 % of control
34 | CATTTTCTGACTCTAAT (sugars l4 d9 l4, PS) | 57.8 % of control
35 | GCAACAATCCAACCAC (sugars l2 d10 l4, PS) | 76.3 % of control
36 | CACCATCCAAGTCAATGCCT (sugars l3 d14 l3, PS) | 24.2 % of control
37 | GTGATATTGTCCAGGGACCC (sugars l3 d14 l3, PS) | 0 % of control
38 | TAGACTATTTGCACACTGCC (sugars l3 d14 l3, PS) | 51.9 % of control
39 | ATTTCCAAATTCACTTTTAC (sugars lldlldddddddddlddlll, PS) | 35.4 % of control
40 | ATTTCCAAATTCACTTTTAC (sugars llddlldddddddddldlll, PS) | 112 % of control
41 | CATAGCACTTACTACTT (sugars l4 d10 l3, PS) | 84.1 % of control
42 | AAACCAACTCAACATTACCC (sugars l3 d15 l2, PS) | 94.3 % of control
43 | CTTTATTTCCAAATTCACTT (sugars l4 d12 l4, PS) | 0 % of control
44 | CAAATCAATTCTCATTTCAA (sugars l4 d12 l4, PS) | 65.7 % of control

Row | Sequence | calcium oscillation score
45 | CGAGCCAAAGCCGA (sugars l3 d8 l3, PS) | 116 % of control
46 | TGGATATAGTTAAGGC (sugars l3 d10 l3, PS) | 90.5 % of control
47 | TTGAAGTCCCGAGC (sugars l3 d8 l3, PS) | 0 % of control
48 | ATGTTGCCTAATGAGC (sugars l3 d10 l3, PS) | 69 % of control
49 | TCCCACCATCCACGCTC (sugars l2 d13 l2, PS) | 64.7 % of control
50 | TATCATATCCTAAGCA (sugars l3 d9 l4, PS) | 76 % of control
51 | CCCAGCGTGATCTTCCATCA (sugars l4 d11 l5, PS) | 104 % of control
52 | CACTCTCTGCATATATA (sugars l4 d10 l3, PS) | 48 % of control
53 | AGAAATAAGTGGTAGT (sugars l4 d9 l3, PS) | 89.3 % of control
54 | TGATGGATGTTGCCTAATGA (sugars l3 d14 l3, PS) | 0 % of control
55 | TTAGCCCTAAAGTCCCAGGT (sugars l3 d14 l3, PS) | 86.3 % of control
56 | CACCCTTACACATAGCT (sugars l3 d12 l2, PS) | 55.6 % of control
57 | CATCAGTCTTATCTCCC (sugars l2 d13 l2, PS) | 54.7 % of control
58 | AGGTCAACTGGTTTGT (sugars l3 d10 l3, PS) | 0 % of control
59 | CCTCTCCTTTAAGAAAA (sugars l4 d10 l3, PS) | 74.9 % of control
60 | AGGTCACCTTGCTCAG (sugars l3 d10 l3, PS) | 52.8 % of control
61 | AACATCTAAACACCTCAATC (sugars l4 d12 l4, PS) | 77.6 % of control
62 | CCCACTTTTAATTAAATTTC (sugars l3 d14 l3, PS) | 76.8 % of control
63 | TCTCTCTAGACATCTCA (sugars l2 d12 l3, PS) | 68.4 % of control
64 | AACATCACCAGCCTTC (sugars l3 d9 l4, PS) | 50.7 % of control
65 | AGGTCAACTGGTTTGTAGAC (sugars l3 d14 l3, PS) | 0 % of control
66 | ATGTCGATGCTGCCGG (sugars l3 d10 l3, PS) | 0 % of control

Row | Sequence | calcium oscillation score
67 | TCCCCACCCAAACTCCA (sugars l2 d13 l2, PS) | 80.8 % of control
68 | CATCACCAAGTCCCAAA (sugars l2 d11 l4, PS) | 81 % of control
69 | CCCGTGGTCTGTCT (sugars l3 d8 l3, PS) | 89.8 % of control
70 | CAACTCAACATTACCCTTAA (sugars l3 d14 l3, PS) | 68 % of control
71 | CCTCGTCAGCTAGCGT (sugars l3 d10 l3, PS) | 76 % of control
72 | ACTAATATTAACACTAT (sugars l4 d9 l4, PS) | 79.5 % of control
73 | TTGGCTTTGGCGTT (sugars l3 d8 l3, PS) | 96.2 % of control
74 | CTCAGATTTTACTTCCA (sugars l4 d11 l2, PS) | 45.2 % of control
75 | GCATGATTGTGGGCT (sugars l3 d9 l3, PS) | 0 % of control
76 | TAATCCTACCACCAGA (sugars l2 d10 l4, PS) | 86 % of control
77 | AACCACTCTAACATCTT (sugars l4 d9 l4, PS) | 88.3 % of control
78 | TAAATACATCAATAGAAGGC (sugars l3 d14 l3, PS) | 50.4 % of control
79 | ATCACTGATTTTGAAGTCCC (sugars l5 d10 l5, PS) | ≥ 200 % of control
80 | AAACTCATTTACCAATTATC (sugars l4 d12 l4, PS) | 56.8 % of control
81 | ACACCTCGTCAGCTAGCGTG (sugars l3 d14 l3, PS) | 0 % of control
82 | ATTTCCAAATTCACTTTTAC (sugars lldldldddddddddldlll, PS) | 122 % of control
83 | GTGACAGAAGAGACGT (sugars l3 d10 l3, PS) | 0 % of control
84 | CTTTATTTCCAAATTCAC (sugars lldlddddddddddldll, PS) | 136 % of control
85 | TATTTCCAAATTCACTTTTA (sugars l4 d11 l5, PS) | 172 % of control
86 | CTCTTTGAACACCCCATC (sugars l3 d13 l2, PS) | 41.9 % of control
87 | CTGGACGTTGCTAAGA (sugars l3 d10 l3, PS) | 0 % of control
88 | ACTTTATCCCTCCATGA (sugars l3 d11 l3, PS) | 39.6 % of control

Row | Sequence | calcium oscillation score
89 | AGCTGGGTGGTGTCTTTGGA (sugars l3 d14 l3, PS) | 0 % of control
90 | GTCTGAGCTACCAGGA (sugars l3 d10 l3, PS) | 11.7 % of control
91 | ACTTTTGAACCCATTCC (sugars l2 d12 l3, PS) | 83.6 % of control
92 | TACCCCATTTTTGACA (sugars l3 d11 l2, PS) | 60.9 % of control
93 | CATCTAAACACCTCAATCCA (sugars l2 d16 l2, PS) | 72.6 % of control
94 | CTAATCCTGTGCTTCA (sugars l3 d10 l3, PS) | 100 % of control
95 | CTCCAATTTTAAACTTAAA (sugars l4 d11 l4, PS) | 70.2 % of control
96 | CGTGGTCTGTCTTGGC (sugars l3 d10 l3, PS) | 19 % of control
97 | AGAGAGACCACATTATCATC (sugars l3 d14 l3, PS) | 68.5 % of control
98 | CACTGTTACACATTTAT (sugars l4 d9 l4, PS) | 68 % of control
99 | CATTAACCCTTGATCATATT (sugars l3 d14 l3, PS) | 36.3 % of control
100 | AAGATACATGCGTCCT (sugars l3 d10 l3, PS) | 112 % of control
101 | TGTCCAAACTTTTACTC (sugars l4 d10 l3, PS) | 65.3 % of control
102 | ATTTCCAAATTCACTTTTAC (sugars l5 d11 l4, PS) | 78.8 % of control
103 | TGCCCATTCAAAATCTT (sugars l3 d11 l3, PS) | 74.3 % of control
104 | GCAGGTATCCAGCCATATTT (sugars l3 d14 l3, PS) | 29.4 % of control
105 | GGTCAACTGGTTTGTA (sugars l3 d10 l3, PS) | 55.6 % of control
106 | CCCAAGAGGCACAAGT (sugars l3 d10 l3, PS) | 89.5 % of control
107 | GTCAGCTAGCGTGGCG (sugars l3 d10 l3, PS) | 27.6 % of control
108 | CCTTTTTCCATCTTACTAAT (sugars l3 d14 l3, PS) | 54.7 % of control
